Structures can show the parent of a compound that is named as a salt.
What was measured:
Details in all cases: exposure time 48 h
[1] = test system: Caenorhabditis elegans N2; experiment: lowest effective concentration for larval growth inhibition (size below effect threshold); higher = less potent
In short: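 Chemical exposure ran for 48 h at 20°C: 50 C. elegans N2 L1 larvae per 96-well in K-medium with killed bacteria, 1% DMSO and 0.5, 1, 5, 10, 50, 100 or 200 µM chemical. Extinction of each worm, read as size on the Biosort, was log-transformed and averaged by well. The lowest effective concentration is the first dose whose plate-adjusted mean size is below a fixed value and remains so at all higher doses; the value is 5.665.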

[2] = test system: Caenorhabditis elegans N2; experiment: AC50 for larval growth inhibition (Hill fit); higher = less potent
In short: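 Worms were synchronised C. elegans N2 L1 larvae, 50 per well of a 96-well plate, kept 48 h at 20°C in K-medium with killed OP50, 1% DMSO and 0.5–200 µM chemical. Size was taken as COPAS Biosort extinction, log-transformed and averaged per well, using only wells with at least 10 worms. AC50 was estimated by a constrained Hill fit with weighted genetic-algorithm regression; values outside the range are censored.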

[3] = test system: Caenorhabditis elegans N2; experiment: mean nematode size ln(EXT) after 48 h, plate-adjusted (DMSO control set to 6) (ln(EXT), control-adjusted); higher = larger nematodes / less growth inhibition
In short: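 Worms were measured individually for extinction on the Biosort after 48 h at 20°C. They began as synchronised C. elegans N2 L1 larvae in K-medium with killed OP50, 1% DMSO and 0.5–200 µM chemical. Once debris had been removed by a growth model, values were natural-logged and averaged per well to give mean size. The plate adjustment subtracted the vehicle control mean and added 6.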

Row | SMILES | lowest effective concentration [1] [µM] | AC50 for larval growth inhibition [2] [µM] | mean nematode size ln(EXT) (ln) ([3]; 0.5 µM) | mean nematode size ln(EXT) (ln) ([3]; 1 µM) | mean nematode size ln(EXT) (ln) ([3]; 5 µM) | mean nematode size ln(EXT) (ln) ([3]; 10 µM) | mean nematode size ln(EXT) (ln) ([3]; 50 µM) | mean nematode size ln(EXT) (ln) ([3]; 100 µM) | mean nematode size ln(EXT) (ln) ([3]; 200 µM)
1 | CCCCCCCCCCCCCCCCO [1-Hexadecanol] | 200 | > 200 | 5.89 | 5.83 | 5.86 | 5.79 | 5.68 | 5.79 | 5.64
2 | CC/C(=N\OC/C=C/Cl)C1=C(O)CC(C2CCOCC2)CC1=O (centres undefined) [Tepraloxydim] | 200 | > 200 | 5.72 | 5.89 | 5.74 | 5.83 | 5.77 | 5.86 | 5.43
3 | CCCCCCCCCC[N+](C)(C)CCCCCCCCCC [Didecyl dimethyl ammonium chloride] | 10 | 17 | 5.9 | 5.91 | 5.88 | 5.51 | 3.71 | 3.63 | 3.62
4 | CC[C@H](NC(=O)c1cc(F)ccc1NS(=O)(=O)c1cccc2cccnc12)c1ccccc1 | 10 | 57.4 | 5.88 | 5.83 | 5.85 | 5.52 | 4.56 | 4.28 | 3.77
5 | CN(C)C(=O)Nc1ccc(Cl)c(Cl)c1 [Diuron] | 200 | 179 | 6.19 | 6.62 | 6.24 | 6.31 | 6.48 | 6.26 | 5.16
6 | CC(C)Oc1cc(-n2nc(C(C)(C)C)oc2=O)c(Cl)cc1Cl [Oxadiazon] | 200 | 120 | 6.14 | 6.23 | 6.09 | 5.95 | 6.05 | 5.95 | 3.29
7 | CCC(C)(C)C(=O)OC1=C(c2ccc(Cl)cc2Cl)C(=O)OC12CCCCC2 [Spirodiclofen] | 50 | 24 | 5.74 | 5.86 | 5.7 | 5.73 | 4.53 | 4.72 | 4.25
8 | CCCCCCCCOc1ccc(C(=O)c2ccccc2)c(O)c1 [2-Hydroxy-4-(octyloxy)benzophenone] | 50 | 19.2 | 5.91 | 5.98 | 5.92 | 5.95 | 5.61 | 5.56 | 5.64
9 | CC(C)=CC1C(C(=O)OCN2C(=O)C3=C(CCCC3)C2=O)C1(C)C (centres undefined) [Tetramethrin] | 100 | 78.6 | 5.94 | 5.96 | 6.03 | 6.01 | 5.76 | 4.97 | 4.57
10 | Sc1nc2ccccc2s1 [2-Mercaptobenzothiazole] | 100 | > 200 | 5.83 | 5.81 | 5.8 | 5.76 | 5.69 | 5.59 | 5.57
11 | CC/C(=C(\c1ccccc1)c1ccc(OCCN(C)C)cc1)c1ccccc1 [Tamoxifen citrate salt] | 10 | 10.9 | 5.96 | 6 | 5.82 | 5.01 | 3.9 | 3.68 | 
12 | C[C@]12CC[C@@H]3c4ccc(O)cc4CC[C@H]3[C@@H]1CC[C@@H]2O [beta-Estradiol] | 200 | 188 | 5.85 | 5.81 | 5.8 | 5.84 | 5.75 | 5.94 | 5.2
13 | c1ccc2c(c1)Cc1ccccc1-2 [Diphenylenemethane] | 50 | 39.2 | 6.07 | 6.06 | 6.03 | 5.92 | 4.4 | 4.02 | 3.5
14 | N=C(N)c1ccc(OCCCCCOc2ccc(C(=N)N)cc2)cc1 [Pentamidine isethionate salt] | 50 | 149 | 6.04 | 6.06 | 6 | 5.89 | 5.44 | 5.05 | 4.25
15 | C1=CCCC=CCCC=CCC1 [1,5,9-Cyclododecatriene] | 200 | > 200 | 5.89 | 5.9 | 5.9 | 5.83 | 5.92 | 5.86 | 5.34
16 | CON(C)C(=O)Nc1ccc(Cl)c(Cl)c1 [Linuron] | 100 | 104 | 6.04 | 6.22 | 6.19 | 5.98 | 6.16 | 5.57 | 4.43
17 | Oc1ccc2ccc3cccc4ccc1c2c34 [1-Hydroxypyrene] | 50 | 16 | 6 | 5.88 | 5.84 | 5.75 | 3.72 | 3.8 | 3.87
18 | CC#Cc1cc(C)nc(Nc2ccccc2)n1 [Mepanipyrim] | 200 | > 200 | 5.81 | 5.81 | 5.8 | 5.84 | 5.7 | 5.75 | 5.21
19 | OCCC(F)(F)C(F)(F)C(F)(F)C(F)(F)C(F)(F)C(F)(F)C(F)(F)C(F)(F)F [1,1,2,2-Tetrahydroperfluoro-1-decanol] | 10 | > 200 | 5.86 | 5.67 | 5.72 | 5.62 | 5.54 | 5.37 | 4.6
20 | COC(=O)c1c(Cl)c(Cl)c(C(=O)OC)c(Cl)c1Cl [Chlorthal-dimethyl] | 100 | > 200 | 5.89 | 5.95 | 5.78 | 5.83 | 5.75 | 5.56 | 5.42
21 | CCOc1cc(C(C)(C)C)ccc1C1COC(c2c(F)cccc2F)=N1 (centres undefined) [Etoxazole] | 1 | 2.3 | 5.74 | 5.16 | 4.48 | 4.32 | 4.37 | 3.91 | 3.44
22 | CC(C)N(C(=O)SCC(Cl)=C(Cl)Cl)C(C)C [Tri-allate] | 50 | 86.7 | 5.72 | 5.91 | 5.86 | 5.9 | 5.39 | 4.62 | 3.99
23 | Cn1cc(-c2ccccc2)c(=O)c(-c2cccc(C(F)(F)F)c2)c1 [Fluridone] | 100 | 52 | 6 | 5.95 | 5.96 | 5.88 | 5.69 | 4.25 | 5.6

Row | SMILES | lowest effective concentration [1] [µM] | AC50 for larval growth inhibition [2] [µM] | mean nematode size ln(EXT) (ln) ([3]; 0.5 µM) | mean nematode size ln(EXT) (ln) ([3]; 1 µM) | mean nematode size ln(EXT) (ln) ([3]; 5 µM) | mean nematode size ln(EXT) (ln) ([3]; 10 µM) | mean nematode size ln(EXT) (ln) ([3]; 50 µM) | mean nematode size ln(EXT) (ln) ([3]; 100 µM) | mean nematode size ln(EXT) (ln) ([3]; 200 µM)
24 | CSC1=N[C@@](C)(c2ccccc2)C(=O)N1Nc1ccccc1 [Fenamidone] | 200 | 105 | 5.9 | 5.9 | 5.86 | 5.96 | 6.02 | 5.83 | 5.41
25 | N#CSCSc1nc2ccccc2s1 [TCMTB] | 50 | 34 | 5.93 | 5.84 | 5.81 | 5.78 | 4.12 | 3.48 | 3.4
26 | ClC1(Cl)C2(Cl)C3(Cl)C4(Cl)C(Cl)(Cl)C5(Cl)C3(Cl)C1(Cl)C5(Cl)C24Cl (centres undefined) [Mirex] | 50 | > 200 | 5.34 | 5.5 | 5.57 | 6.06 | 5.56 | 5.51 | 5.59
27 | CC1=C2C[C@H]3[C@@H](CC=C4C[C@@H](O)CC[C@@]43C)[C@@H]2CC[C@]12O[C@@H]1C[C@H](C)CN[C@H]1[C@H]2C [Cyclopamine] | 200 | > 200 | 5.89 | 5.89 | 5.9 | 5.85 | 5.9 | 5.8 | 5.39
28 | CCCCCCCCCCCCCCCO [1-Pentadecanol] | 50 | > 200 | 5.76 | 5.96 | 5.83 | 5.8 | 5.59 | 5.49 | 5.3
29 | ClC1=C(Cl)C2(Cl)C3C(Cl)C(Cl)CC3C1(Cl)C2(Cl)Cl (centres undefined) [Chlordane] | 5 | 8.58 | 5.98 | 5.93 | 5.24 | 4.63 | 3.8 | 3.81 | 3.48
30 | Oc1cc(Cl)ccc1Oc1ccc(Cl)cc1Cl [Triclosan] | 10 | 49.9 | 5.89 | 5.86 | 5.85 | 5.64 | 4.79 | 4.27 | 4
31 | Nc1ccc(Cc2ccc(N)cc2)cc1 [4,4'-Methylenedianiline] | 200 | > 200 | 5.98 | 5.73 | 5.91 | 5.78 | 5.87 | 5.92 | 5.53
32 | CC(C)[C@H](C(=O)O[C@H](C#N)c1cccc(Oc2ccccc2)c1)c1ccc(Cl)cc1 [Esfenvalerate] | 200 | > 200 | 5.76 | 5.83 | 5.9 | 5.73 | 5.74 | 5.76 | 5.64
33 | CNCc1cc(F)ccc1Oc1ccc(Cl)c(Cl)c1 | 10 | 39.1 | 5.86 | 5.78 | 5.86 | 5.24 | 4.33 | 4.11 | 3.59
34 | CC(C)CCCCCCOC(=O)C1CCCCC1C(=O)OCCCCCCC(C)C (centres undefined) | 200 | > 200 | 5.92 | 5.97 | 5.87 | 5.9 | 5.87 | 5.84 | 5.66
35 | CCCCCCCCCCCCN1CCCC1=O [N-Lauryl-2-pyrrolidone] | ≤ 0.5 | 16.1 | 5.42 | 5.51 | 5.45 | 4.97 | 3.49 | 3.53 | 3.03
36 | CCN(Cc1c(F)cccc1Cl)c1c([N+](=O)[O-])cc(C(F)(F)F)cc1[N+](=O)[O-] [Flumetralin] | 200 | 180 | 6.16 | 6.01 | 6 | 6.02 | 6.1 | 6.11 | 3.65
37 | CCOC(=O)c1ccc(C2CCC(NC[C@H](O)COc3ccc(O)c(NS(C)(=O)=O)c3)CC2)cc1 (some centres undefined) | 100 | > 200 | 5.91 | 5.88 | 5.77 | 5.77 | 5.7 | 5.57 | 5.48
38 | S=C([S-])NCCNC(=S)[S-].S=C([S-])NCCNC(=S)[S-].[Mn+2].[Zn+2] [Mancozeb] | 200 | > 200 | 5.79 | 5.84 | 5.84 | 5.85 | 5.83 | 5.7 | 5.39
39 | COP(=S)(OC)Oc1ccc([N+](=O)[O-])cc1 [Parathion-methyl] | 5 | 15.1 | 5.71 | 5.8 | 5.52 | 5.25 | 3.72 | 3.66 | 3.7
40 | CN1CCN(c2ccccc2/C=C2\SCCN(c3ccc(Cl)c(Cl)c3)C2=O)CC1 [Elzasonan] | 10 | 62.7 | 5.89 | 5.8 | 5.84 | 5.58 | 4.76 | 4.27 | 3.67
41 | C=C(C)[C@H]1Cc2c(ccc3c2O[C@@H]2COc4cc(OC)c(OC)cc4[C@@H]2C3=O)O1 [Rotenone] | 200 | 181 | 5.16 | 6.51 | 6.12 | 6.26 | 6.39 | 6.45 | 4.07
42 | CNC(=O)ON=C(C)SC [Methomyl] | 50 | 91.6 | 5.94 | 5.95 | 6.08 | 5.93 | 5.19 | 4.65 | 3.39
43 | CCCCOC(=O)c1ccccc1C(=O)OCCCC [Dibutyl phthalate] | 50 | 20.9 | 6.09 | 6.09 | 5.61 | 5.99 | 4.67 | 5.62 | 5.42
44 | CCCSP(=O)(OCC)Oc1ccc(Br)cc1Cl (centres undefined) [Profenofos] | 50 | 56.4 | 5.75 | 6.26 | 6.17 | 6.04 | 4.95 | 3.31 | 3.04
45 | CC(C)(C)OOC(C)(C)C [Di-tert-butyl peroxide] | 200 | > 200 | 5.88 | 5.88 | 5.96 | 5.83 | 5.59 | 5.79 | 5.31
